The target of one assay is EGFR^Del19 (Homo sapiens, UniProt P00533+Q96SW2, DEL746-750). Briefly: Western blot of EGFR degradation in HCC827 cells. It is filed as cell-based. On the set-up: host or cells: HCC827. Particulars: for Degradation activity, in words: HCC827 (EGFR^Del19) cells; for EGFR degradation (%): HCC827, 24 h, average of two independent experiments, NA = not active; for Effect of inhibitor pretreatment on EGFR^Del19 degradation induced by compound 14 / Rescue of EGFR^Del19 reduction induced by compound 12 or 14 (competition): HCC827; for Effect of inhibitor pretreatment on EGFR^Del19 degradation induced by compound 14: 2 μM MG132 or 5 μM MLN4924 for 2 h, then 10 nM of 14 for 8 h; for Rescue of EGFR^Del19 reduction induced by compound 12 or 14 (competition): 2 h pretreatment, 10 nM degrader 4 h. The procedure:
HCC827 and H1975 cell lines were purchased from ATCC (United States) and cultured according to the manuals. Cells were grown in monolayers in appropriate media supplemented with 10% fetal bovine serum and 1% antibiotic/antimycotic solution.
(§1) Cells at 70%–90% confluence were lysed in RIPA buffer with complete protease inhibitor cocktail (Roche Applied Science, Penzberg, Germany). Lysates were quantified, separated on SDS-PAGE gels, and transferred onto PVDF membranes, followed by the blockade with 5% milk in TBS+ 0.1% Tween-20 buffer for 1 h at room temperature. The following primary antibodies were used: anti-EGFR (1:50000, ABclonal Technology, Wuhan, China), anti-pEGFR (Tyr1068, […], Cell Signaling Technology, MA, United States), anti-AKT (1:10000, ABclonal Technology, Wuhan, China), anti-pAKT (1:10000, ABclonal Technology, Wuhan, China), and anti-β-actin (1:10000, ABclonal Technology, Wuhan, China). Protein bands were detected using Tanon High-signal ECL Western Blotting Substrate (Tanon Science and Technology Co., Ltd., Shanghai, China). The band density of the protein of interest was quantified using ImageJ.

Another assay concerns H1299 cells. Briefly: Cell viability (CCK-8) in H1299 cells. The format is cell-based. Particulars: up to 1 μM, 96 h. The procedure: (§2) Cells (5 × 10^3 for 48 h or 1 × 10^3 for 96 h) were seeded in 96-well plates, allowed to attach overnight, and then incubated with various concentrations of compounds for 48 h or 96 h. The viability of cells was determined using Cell Counting Kit-8 (CCK-8; Dojindo), and IC50 was calculated using GraphPad Prism (version 6.0). For colony formation assays, cells (1 × 10^3 cells/well) seeded in 24-well plates were treated with different concentrations of compounds and replaced with fresh media with compounds every 4 days. After 7 days, the cells were washed with PBS, fixed with methanol, and stained with 0.1% crystal violet solution.

Another assay deals with H1975 cells. Briefly: Cell viability (CCK-8) in H1975 cells. The format is cell-based. The following applies: up to 1 μM, 96 h. The procedure: as §2
For the next assay, the target named is EGFR^WT protein (Homo sapiens, UniProt P00533). The assay can be described thus: Immunoblots of EGFR in H1299, H460 and HeLa cells. It is filed as cell-based. The following applies: H1299, H460 and HeLa cell lines, up to 1 μM, 24 h. The procedure: as §1
In another assay the test system is pEGFR and pAKT. Briefly: Western blot of downstream signaling in HCC827 cells. The format is cell-based, human. The procedure: as §1
The test system of another assay is HeLa cells. The assay can be described thus: Cell viability (CCK-8) in HeLa cells. The format is cell-based. The following applies: up to 1 μM, 96 h. The protocol: as §2
A further assay concerns the target T1, EGFR^L858R/T790M protein (Homo sapiens, UniProt P00533, L858R/T790M).
T1 construct: nor the EGFR^L858R/T790M protein in the H1975 cell line, up to 1 μM; host or cells: H1975
The assay can be described thus: Immunoblots of EGFR in H1975 cells. The following applies: H1975 cell line, up to 1 μM, 24 h. The format is cell-based. The procedure:
as §1
Background: In western blotting, separated proteins are transferred to a membrane and probed.

The subject of another assay is HCC827 cells. The assay can be described thus: Cell viability (CCK-8) in HCC827 cells. The following applies: for IC50: Homo sapiens, CCK-8. The format is cell-based, human. The procedure: The viability of cells was determined using Cell Counting Kit-8 (CCK-8; Dojindo), and IC50 was calculated using GraphPad Prism (version 6.0). For colony formation assays, cells (1 × 10^3 cells/well) seeded in 24-well plates were treated with different concentrations of compounds and replaced with fresh media with compounds every 4 days. After 7 days, the cells were washed with PBS, fixed with methanol, and stained with 0.1% crystal violet solution.

Where “and” joins values, the source holds several entries; their conditions need not be identical. Identical values can stand only once. Where a SMILES comes first, the peptide text is derived from it. The star is where a group is joined. Cbz = O=C(OCc1ccccc1)*

As a reminder, the Dmax is the largest share of the target that was removed. Lower therefore signals shallow degradation. By DC50 is commonly meant the midpoint of the concentration-degradation curve. Low values mean degradation at low concentration, high ones degradation only at high concentration. As a reminder, the IC50 is the midpoint of a concentration-inhibition curve.

Consider `O=C1CCC(N2C(=O)c3ccc(OCCCCCOc4cc5ncnc(Nc6ccc(F)c(Cl)c6)c5cc4OCCCN4CCOCC4)cc3C2=O)C(=O)N1` (stereo not drawn) [Compound 1], for which, on EGFR^Del19 (10 nM), the “Degradation activity, in words” value is given as “no degradation effect” and the “EGFR degradation (%)” value is given as −6.6 ± 4.2%.
The corresponding values for `O=C1CCC(N2C(=O)c3ccc(OCCCCCCCCOc4cc5ncnc(Nc6ccc(F)c(Cl)c6)c5cc4OCCCN4CCOCC4)cc3C2=O)C(=O)N1` (stereo not drawn) [Compound 2] are “weak degradation activities” and 15.3 ± 5.9%.
The corresponding values for `O=C1CCC(N2C(=O)c3ccc(OCCCCCCCCCCCOc4cc5ncnc(Nc6ccc(F)c(Cl)c6)c5cc4OCCCN4CCOCC4)cc3C2=O)C(=O)N1` (stereo not drawn) [Compound 3] are “weak degradation activities” and 7.0 ± 9.3%.
In the case of `O=C1CCC(N2C(=O)c3ccc(N4CCN(C(=O)CCCCCCCOc5cc6ncnc(Nc7ccc(F)c(Cl)c7)c6cc5OCCCN5CCOCC5)CC4)cc3C2=O)C(=O)N1` (stereo not drawn) [Compound 6], the “EGFR degradation (%)” value at EGFR^Del19 (10 nM) came out at 15.0 ± 4.0%.
As to `O=C1CCC(N2C(=O)c3ccc(N4CCN(CCCCCCCCCCOc5cc6ncnc(Nc7ccc(F)c(Cl)c7)c6cc5OCCCN5CCOCC5)CC4)cc3C2=O)C(=O)N1` (stereo not drawn) [Compound 7], the “EGFR degradation (%)” value at EGFR^Del19 (10 nM) turned out to be 19.4 ± 15.1%.
Same read-out and setting: with `O=C1CCC(N2C(=O)c3ccc(N4CCN(CCCC(=O)N5CCN(CCCOc6cc7ncnc(Nc8ccc(F)c(Cl)c8)c7cc6OCCCN6CCOCC6)CC5)CC4)cc3C2=O)C(=O)N1` (stereo not drawn) [Compound 9] the figure was 66.3 ± 22.7%; with `O=C1CCC(N2C(=O)c3ccc(N4CCN(CCCCN5CCN(CCCOc6cc7ncnc(Nc8ccc(F)c(Cl)c8)c7cc6OCCCN6CCOCC6)CC5)CC4)cc3C2=O)C(=O)N1` (stereo not drawn) [Compound 10], 32.4 ± 17.1%.
As to `O=C1CCC(N2C(=O)c3ccc(N4CCN(CCN5CCN(CCOc6cc7ncnc(Nc8ccc(F)c(Cl)c8)c7cc6OCCCN6CCOCC6)CC5)CC4)cc3C2=O)C(=O)N1` (stereo not drawn) [Compound 11], the “EGFR degradation (%)” value at EGFR^Del19 (10 nM) is reported as 25.1 ± 11.2%.
On to `O=C1CCC(N2C(=O)c3ccc(N4CCN(CCN5CCN(CCCOc6cc7ncnc(Nc8ccc(F)c(Cl)c8)c7cc6OCCCN6CCOCC6)CC5)CC4)cc3C2=O)C(=O)N1` (stereo not drawn) [Compound 12], for which the Effect on viability result in the assay on H1299 cells, in the assay on H1975 cells and in the assay with HeLa cells was “did not affect the viability” each time. The “Degradation of EGFR^WT protein” value at EGFR^WT protein is given as “neither compound degraded”. Further, the “Levels of pEGFR and pAKT” value in the assay with pEGFR and pAKT is reported as “markedly reduced”. For the same compound, at EGFR^Del19 (10 nM), the “EGFR degradation (%)” value is 60.0% ± 6.9% and 60.0 ± 6.9%. Further, the “Earliest time at which EGFR^Del19 degradation observed” value at EGFR^Del19 (HCC827 cells, 10 nM) is reported as 2 h. Also, the Dmax on EGFR^Del19 (HCC827 cells, 24 h, dose-response) was 85.1%. The compound further returned a DC50 on EGFR^Del19 (HCC827 cells, 24 h treatment) of 1.94 nM. Further, the “Degradation of EGFR^L858R/T790M protein” value at EGFR^L858R/T790M protein is reported as “neither compound degraded”. For the same compound, the IC50 was approximately 30.7 nM with HCC827 cells (HCC827, 48 h, HCC827, 48 h incubation) and approximately 25.6 nM in the assay with HCC827 cells (HCC827, 96 h, HCC827, 96 h incubation).
For `O=C1CCC(N2C(=O)c3ccc(N4CCN(CCCN5CCN(CCOc6cc7ncnc(Nc8ccc(F)c(Cl)c8)c7cc6OCCCN6CCOCC6)CC5)CC4)cc3C2=O)C(=O)N1` (stereo not drawn) [Compound 13], the “EGFR degradation (%)” value at EGFR^Del19 (10 nM) was 16.8 ± 10.5%.
In the case of `COc1cc2c(Nc3ccc(F)c(Cl)c3)ncnc2cc1OCCCN1CCN(CCN2CCN(c3ccc4c(c3)C(=O)N(C3CCC(=O)N(C)C3=O)C4=O)CC2)CC1` (stereo not drawn) [Compound 15], the “Degradation activity, in words” value at EGFR^Del19 (10 nM) is “completely lost its degradation ability”.
Regarding `CC(C)C[C@@H](C=O)NC(=O)[C@H](CC(C)C)NC(=O)[C@H](CC(C)C)NC(=O)OCc1ccccc1` [MG132, reference compound] (Cbz-Leu-Leu-Leu-aldehyde), at EGFR^Del19, the “Effect of inhibitor pretreatment on EGFR^Del19 degradation induced by compound 14” value was “restored”.
Consider `NS(=O)(=O)OC[C@@H]1C[C@@H](n2ccc3c(N[C@H]4CCc5ccccc54)ncnc32)C[C@@H]1O` [MLN4924, reference compound], for which the “Effect of inhibitor pretreatment on EGFR^Del19 degradation induced by compound 14” value on EGFR^Del19 was “restored”.
Consider `COc1cc2ncnc(Nc3ccc(F)c(Cl)c3)c2cc1OCCCN1CCOCC1` [gefitinib, reference compound], for which the Effect on viability entry in the assay on H1299 cells, in the assay on H1975 cells and with HeLa cells was “did not affect the viability” in each case.
On to `O=C1CCC(N2C(=O)c3ccccc3C2=O)C(=O)N1` (stereo not drawn) [thalidomide, reference compound], for which the “Rescue of EGFR^Del19 reduction induced by compound 12 or 14 (competition)” value on EGFR^Del19 (100 times the degrader dose (1 μM)) is reported as “slight decrease in EGFR^Del19 was still observed”; at EGFR^Del19 (500 times the degrader dose (5 μM)) it was “completely rescue”. For the same compound, the “Influence on viability of HCC827 cells” value in the assay with HCC827 cells (up to 200 nM) is “no influence”.

These data come from article PMC12592173, “Targeted degradation of EGFR 19Del by PROTACs suppresses tumor growth in non-small-cell lung cancer” (Frontiers in Pharmacology, 2025).
